Measurements reported in patent publication US20220119354A1, “DIAMINO-SUBSTITUTED PYRIDINES AND PYRIMIDINES AS HERBICIDES” (FMC Corporation, priority 2019, published 2022).

Key:
Type in all cases: in vivo
[1] = tested on: ragweed (common ragweed, Ambrosia elatior); experiment: Test A postemergence, ragweed; details: 0 to 100 scale
From the text: (§1) Seeds of plant species selected from barnyardgrass (Echinochloa crus-galli), kochia (Kochia scoparia), ragweed (common ragweed, Ambrosia elatior), ryegrass, Italian (Lolium multiflorum), foxtail, giant (Setaria faberii), foxtail, green (Setaria viridis), and pigweed (Amaranthus retroflexus) were planted into a blend of loam soil and sand and treated preemergence with a directed soil spray using test chemicals formulated in a non-phytotoxic solvent mixture which included a surfactant.
(§2) At the same time, plants selected from these weed species and also wheat (Triticum aestivum), corn (Zea mays), blackgrass (Alopecurus myosuroides), and galium (catchweed bedstraw, Galium aparine) were planted in pots containing the same blend of loam soil and sand and treated with postemergence applications of test chemicals formulated in the same manner. Plants ranged in height from 2 to 10 cm and were in the one- to two-leaf stage for the postemergence treatment. Treated plants and untreated controls were maintained in a greenhouse for approximately 10 d, after which time all treated plants were compared to untreated controls and visually evaluated for injury. Plant response ratings, summarized in Table A, are based on a 0 to 100 scale where 0 is no effect and 100 is complete control. A dash (-) response means no test result.

kochia (Kochia scoparia) [2] = experiment: Test A preemergence, kochia; details: 0 to 100 scale
From the text: as §1, §2

[3] = tested on: foxtail, giant (Setaria faberii); experiment: Test A postemergence, giant foxtail; details: 0 to 100 scale
From the text: as §1, §2

[4] = tested on: barnyardgrass (Echinochloa crus-galli); experiment: Test A postemergence, barnyardgrass; details: 0 to 100 scale
From the text: as §1, §2

[5] = tested on: barnyardgrass (Echinochloa crus-galli); experiment: Test B flooded paddy test, barnyardgrass; details: Flood, 250 g ai/ha, applied to paddy water, 2-leaf stage, visual evaluation after 13 to 15 d
Description: (§3) Plant species in the flooded paddy test selected from rice (Oryza sativa), sedge, umbrella (small-flower umbrella sedge, Cyperus difformis), ducksalad (Heteranthera limosa), and barnyardgrass (Echinochloa crus-galli) were grown to the 2-leaf stage for testing. At the time of treatment, test pots were flooded to 3 cm above the soil surface, treated by application of test compounds directly to the paddy water, and then maintained at that water depth for the duration of the test. Treated plants and controls were maintained in a greenhouse for 13 to 15 d, after which time all species were compared to controls and visually evaluated. Plant response ratings, summarized in Table B, are based on a scale of 0 to 100 where 0 is no effect and 100 is complete control. A dash (-) response means no test result.

kochia (Kochia scoparia) [6] = experiment: Test A postemergence, kochia; details: 0 to 100 scale
From the text: as §1, §2

rice (Oryza sativa) = experiment: Test B flooded paddy test, rice; details: Flood, 250 g ai/ha, applied to paddy water, 2-leaf stage, visual evaluation after 13 to 15 d
Description: as §3

corn (Zea mays) = experiment: Test A postemergence, corn; details: 0 to 100 scale
From the text: as §1, §2

[7] = tested on: ryegrass, Italian (Lolium multiflorum); experiment: Test A postemergence, Italian ryegrass; details: 0 to 100 scale
From the text: as §1, §2

[8] = tested on: sedge, umbrella (small-flower umbrella sedge, Cyperus difformis); experiment: Test B flooded paddy test, umbrella sedge; details: Flood, 250 g ai/ha, applied to paddy water, 2-leaf stage, visual evaluation after 13 to 15 d
Description: as §3

[9] = tested on: ducksalad (Heteranthera limosa); experiment: Test B flooded paddy test, ducksalad; details: Flood, 250 g ai/ha, applied to paddy water, 2-leaf stage, visual evaluation after 13 to 15 d
Description: as §3

[10] = tested on: wheat (Triticum aestivum); experiment: Test A postemergence, wheat; details: 0 to 100 scale
From the text: as §1, §2

[11] = tested on: foxtail, giant (Setaria faberii); experiment: Test A preemergence, giant foxtail; details: 0 to 100 scale
From the text: as §1, §2

[12] = tested on: blackgrass (Alopecurus myosuroides); experiment: Test A postemergence, blackgrass; details: 0 to 100 scale
From the text: as §1, §2

[13] = tested on: pigweed (Amaranthus retroflexus); experiment: Test A preemergence, pigweed; details: 0 to 100 scale
From the text: as §1, §2

[14] = tested on: ryegrass, Italian (Lolium multiflorum); experiment: Test A preemergence, Italian ryegrass; details: 0 to 100 scale
From the text: as §1, §2

[15] = tested on: pigweed (Amaranthus retroflexus); experiment: Test A postemergence, pigweed; details: 0 to 100 scale
From the text: as §1, §2

[16] = tested on: galium (catchweed bedstraw, Galium aparine); experiment: Test A postemergence, galium; details: 0 to 100 scale
From the text: as §1, §2

[17] = tested on: barnyardgrass (Echinochloa crus-galli); experiment: Test A preemergence, barnyardgrass; details: 0 to 100 scale
From the text: as §1, §2

[18] = 125 g ai/ha, 0 is no effect, 100 is complete control

Structure (SMILES): CC(Nc1ncc(C(F)(F)F)c(N)n1)c1cc2ccccc2s1 (racemic) [Compound 16]
- Plant response rating, Ragweed ([1]; 125 g ai/ha): 0
- Plant response rating, Ragweed ([1]; 500 g ai/ha): 80
- Plant response rating, Kochia (kochia (Kochia scoparia) [2]; 125 g ai/ha): 70
- Plant response rating, Kochia (kochia (Kochia scoparia) [2]; 500 g ai/ha): 100
- Plant response rating, Foxtail, Giant ([3]; 125 g ai/ha): 20
- Plant response rating, Foxtail, Giant ([3]; 500 g ai/ha): 90
- Plant response rating, Barnyardgrass ([4]; 125 g ai/ha): 30
- Plant response rating, Barnyardgrass ([4]; 500 g ai/ha): 60
- Plant response rating, Barnyardgrass (0 to 100 scale, 0 is no effect, 100 is complete control) [5]: 50
- Plant response rating, Kochia (kochia (Kochia scoparia) [6]; 125 g ai/ha): 70
- Plant response rating, Kochia (kochia (Kochia scoparia) [6]; 500 g ai/ha): 80
- Plant response rating, Rice (0 to 100 scale, 0 is no effect, 100 is complete control) (rice (Oryza sativa)): 0
- Plant response rating, Corn (corn (Zea mays); 125 g ai/ha): 0
- Plant response rating, Corn (corn (Zea mays); 500 g ai/ha): 20
- Plant response rating, Ryegrass, Italian ([7]; 125 g ai/ha): 0
- Plant response rating, Ryegrass, Italian ([7]; 500 g ai/ha): 40
- Plant response rating, Sedge, Umbrella (0 to 100 scale, 0 is no effect, 100 is complete control) [8]: 95
- Plant response rating, Ducksalad (0 to 100 scale, 0 is no effect, 100 is complete control) [9]: 15
- Plant response rating, Wheat ([10]; 125 g ai/ha): 0
- Plant response rating, Wheat ([10]; 500 g ai/ha): 0
- Plant response rating, Foxtail, Giant ([11]; 125 g ai/ha): 50
- Plant response rating, Foxtail, Giant ([11]; 500 g ai/ha): 100
- Plant response rating, Blackgrass ([12]; 125 g ai/ha): 10
- Plant response rating, Blackgrass ([12]; 500 g ai/ha): 30
- Plant response rating, Pigweed ([13]; 125 g ai/ha): 90
- Plant response rating, Pigweed ([13]; 500 g ai/ha): 100
- Plant response rating, Ryegrass, Italian ([14]; 125 g ai/ha): 0
- Plant response rating, Ryegrass, Italian ([14]; 500 g ai/ha): 10
- Plant response rating, Pigweed ([15]; 125 g ai/ha): 90
- Plant response rating, Pigweed ([15]; 500 g ai/ha): 100
- Plant response rating, Galium ([16]; 125 g ai/ha): 60
- Plant response rating, Galium ([16]; 500 g ai/ha): 80
- Plant response rating, Barnyardgrass ([17]; 125 g ai/ha): 70
- Plant response rating, Barnyardgrass ([17]; 500 g ai/ha): 100

Structure (SMILES): Cc1cc(OCC(C)Nc2ncc(C(F)(F)F)c(N)n2)ccc1F (stereo not drawn) [Compound 38]
- Plant response rating, Ragweed ([1]; 125 g ai/ha): 0
- Plant response rating, Ragweed ([1]; 500 g ai/ha): 0
- Kochia plant response rating (kochia (Kochia scoparia) [2]; [18]): 0
- Plant response rating, Kochia (kochia (Kochia scoparia) [2]; 500 g ai/ha): 60
- Plant response rating, Foxtail, Giant ([3]; 125 g ai/ha): 0
- Plant response rating, Foxtail, Giant ([3]; 500 g ai/ha): 0
- Plant response rating, Barnyardgrass ([4]; 125 g ai/ha): 0
- Plant response rating, Barnyardgrass ([4]; 500 g ai/ha): 0
- Plant response rating, Barnyardgrass (0 to 100 scale, 0 is no effect, 100 is complete control) [5]: 0
- Plant response rating, Kochia (kochia (Kochia scoparia) [6]; 125 g ai/ha): 0
- Plant response rating, Kochia (kochia (Kochia scoparia) [6]; 500 g ai/ha): 30
- Plant response rating, Rice (0 to 100 scale, 0 is no effect, 100 is complete control) (rice (Oryza sativa)): 0
- Plant response rating, Corn (corn (Zea mays); 125 g ai/ha): 0
- Plant response rating, Corn (corn (Zea mays); 500 g ai/ha): 0
- Plant response rating, Ryegrass, Italian ([7]; 125 g ai/ha): 0
- Plant response rating, Ryegrass, Italian ([7]; 500 g ai/ha): 0
- Plant response rating, Sedge, Umbrella (0 to 100 scale, 0 is no effect, 100 is complete control) [8]: 0
- Plant response rating, Ducksalad (0 to 100 scale, 0 is no effect, 100 is complete control) [9]: 0
- Plant response rating, Wheat ([10]; 125 g ai/ha): 0
- Plant response rating, Wheat ([10]; 500 g ai/ha): 0
- Foxtail, Giant plant response rating [11, 18]: 20
- Plant response rating, Foxtail, Giant ([11]; 500 g ai/ha): 90
- Plant response rating, Blackgrass ([12]; 125 g ai/ha): 0
- Plant response rating, Blackgrass ([12]; 500 g ai/ha): 0
- Pigweed plant response rating [13, 18]: 50
- Plant response rating, Pigweed ([13]; 500 g ai/ha): 90
- Plant response rating, Pigweed ([15]; 125 g ai/ha): 20
- Plant response rating, Pigweed ([15]; 500 g ai/ha): 80
- Plant response rating, Galium ([16]; 125 g ai/ha): 30
- Plant response rating, Galium ([16]; 500 g ai/ha): 70
- Barnyardgrass plant response rating [17, 18]: 30
- Plant response rating, Barnyardgrass ([17]; 500 g ai/ha): 90
